What was measured:
C6 = test: Inhibition of C-6 rat glioma cell proliferation; type: functional, cell-based
HCT-8 = test: Inhibition of human colon carcinoma HCT-8 cell proliferation; type: functional, cell-based
HT-29 = test: Inhibition of human colon carcinoma HT-29 cell proliferation; type: functional, cell-based
[1] = target: T1, Platelet-derived growth factor receptor (PDGFr) (Rattus norvegicus, UniProt P20786+Q05030); test: (§1) Inhibition of PDGF receptor autophosphorylation in rat aortic vascular smooth muscle cells; type: functional
SW-620 = test: Inhibition of human colon carcinoma SW-620 cell proliferation; type: functional, cell-based
[2] = target: Proto-oncogene tyrosine-protein kinase Src (Gallus gallus, UniProt P00523); test: Ability to prevent phosphorylation of avian c-Src TK
[3] = target: Cyclin-dependent kinase 4 (Homo sapiens, UniProt P11802); test: Inhibition of cyclin dependent kinase 4 (CDK4)
Sequence of Cyclin-dependent kinase 4 (P11802 whole entry): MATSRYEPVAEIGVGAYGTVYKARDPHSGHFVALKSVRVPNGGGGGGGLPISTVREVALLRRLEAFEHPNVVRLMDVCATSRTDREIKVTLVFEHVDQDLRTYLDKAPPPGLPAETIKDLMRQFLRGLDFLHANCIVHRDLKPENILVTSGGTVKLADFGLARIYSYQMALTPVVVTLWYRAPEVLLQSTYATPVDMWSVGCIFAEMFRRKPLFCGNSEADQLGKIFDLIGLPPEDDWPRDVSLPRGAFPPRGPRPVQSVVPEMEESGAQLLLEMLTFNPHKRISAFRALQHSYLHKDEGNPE

Insulin receptor = Insulin receptor (Homo sapiens, UniProt P06213); test: Inhibition of insulin receptor kinase
Sequence of Insulin receptor (P06213 28-758 limits assumed): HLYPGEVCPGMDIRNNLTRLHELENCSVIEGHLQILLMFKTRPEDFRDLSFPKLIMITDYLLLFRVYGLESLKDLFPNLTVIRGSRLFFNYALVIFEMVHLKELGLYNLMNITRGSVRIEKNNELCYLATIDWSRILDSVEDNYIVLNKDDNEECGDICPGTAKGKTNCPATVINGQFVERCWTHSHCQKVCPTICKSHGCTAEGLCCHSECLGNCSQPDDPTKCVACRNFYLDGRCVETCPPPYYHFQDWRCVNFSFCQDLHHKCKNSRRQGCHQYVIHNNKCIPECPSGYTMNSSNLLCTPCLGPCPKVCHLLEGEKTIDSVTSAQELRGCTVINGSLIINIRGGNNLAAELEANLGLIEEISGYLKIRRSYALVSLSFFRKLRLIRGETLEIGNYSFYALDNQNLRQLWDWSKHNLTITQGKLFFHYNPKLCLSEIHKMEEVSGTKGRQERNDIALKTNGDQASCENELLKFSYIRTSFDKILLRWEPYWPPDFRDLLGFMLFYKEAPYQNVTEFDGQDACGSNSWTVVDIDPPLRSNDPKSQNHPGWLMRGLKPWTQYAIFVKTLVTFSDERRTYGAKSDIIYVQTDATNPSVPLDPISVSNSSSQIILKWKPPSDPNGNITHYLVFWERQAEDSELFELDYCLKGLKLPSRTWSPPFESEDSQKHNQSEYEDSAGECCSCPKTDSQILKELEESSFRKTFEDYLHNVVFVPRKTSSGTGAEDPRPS
Sequence of Insulin receptor (P06213 763-1382 limits assumed): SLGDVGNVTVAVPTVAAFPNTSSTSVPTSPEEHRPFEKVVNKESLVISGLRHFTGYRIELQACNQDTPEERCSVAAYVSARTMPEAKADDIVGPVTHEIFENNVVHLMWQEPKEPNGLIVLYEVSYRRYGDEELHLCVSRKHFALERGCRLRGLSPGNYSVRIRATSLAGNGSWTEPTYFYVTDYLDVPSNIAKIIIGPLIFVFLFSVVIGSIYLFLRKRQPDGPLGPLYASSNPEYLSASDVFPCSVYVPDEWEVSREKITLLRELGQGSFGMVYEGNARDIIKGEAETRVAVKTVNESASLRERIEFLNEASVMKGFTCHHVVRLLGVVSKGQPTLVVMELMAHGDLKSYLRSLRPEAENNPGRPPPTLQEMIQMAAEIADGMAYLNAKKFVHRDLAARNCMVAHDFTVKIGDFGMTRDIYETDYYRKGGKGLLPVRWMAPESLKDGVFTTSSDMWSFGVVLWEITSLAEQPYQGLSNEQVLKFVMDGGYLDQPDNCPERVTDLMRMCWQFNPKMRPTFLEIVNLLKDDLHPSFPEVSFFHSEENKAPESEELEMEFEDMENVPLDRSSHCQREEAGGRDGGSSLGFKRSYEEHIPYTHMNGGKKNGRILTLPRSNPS

[4] = Inhibition of MEK1/ERK (MAP Kinase kinase) in cascade assay
Protein kinase C (PKC) = test: Inhibition of protein kinase C; type: protein assay
[5] = target: T1, Platelet-derived growth factor receptor (PDGFr); test: as §1

Row | IC50 (HCT-8) | IC50 (HT-29) | IC50 [1] | IC50 (SW-620) | IC50 [2] | IC50 [3] | IC50 (Insulin receptor) | IC50 [4] | IC50 (Protein kinase C (PKC)) | IC50 [5] | SMILES | IC50 (C6)
1 | 4 µM | 1.5 µM | 0.37 µM | 4.1 µM | 0.015 µM | – | – | – | – | – | CN1CCN(CCCNc2ncc3cc(-c4c(Cl)cccc4Cl)c(NC(=O)Nc4ccccc4)nc3n2)CC1 | 6.7 µM
2 | 3.2 µM | 0.8 µM | – | 2.6 µM | 0.0075 µM | > 40 µM | > 50 µM | 5 µM | > 50 µM | 1.2 µM | CCN(CC)CCCCNc1ncc2cc(-c3c(Cl)cccc3Cl)c(NC(=O)Nc3ccccc3)nc2n1 | 8.1 µM

From ChEMBL document CHEMBL1134497, “Soluble 2-substituted aminopyrido[2,3-d]pyrimidin-7-yl ureas. Structure-activity relationships against selected tyrosine kinases and exploration of in vitro and in vivo anticancer activity” (J Med Chem, 2001)
